# From patent US10428082B2, “Triazole derivatives of melampomagnolide B and methods of use thereof” (BioVentures, LLC, priority 2016, dated 2019)
# Like-named read-outs stand apart in the source and are kept apart here.
# Experiments:
# [1] = system: M9 ENL1 cell line; experiment: Anti-leukemic activity, Annexin V/7-AAD flow cytometry; format: cell-based; conditions: 24 h of drug exposure; read-out: M9ENL1 (EC50)
# Procedure: The newly synthesized triazole derivatives of melampomagnolide B were screened for anti-leukemic activity against M9 ENL1 and primary AML cell lines; the latter were obtained with informed consent from human patients. Evaluations were performed after 24 h of drug exposure using flow cytometric analysis by labeling with Annexin V and 7-aminoactinomycin D (7-AAD) to delineate apoptotic cell populations. In all experiments PTL was included as a reference control.
# [2] = system: 786-0; experiment: NCI 60 growth inhibition; format: cell-based, human; conditions: 786-0, Renal Cancer, Table 2
# Procedure: (§1) The above triazole derivatives of melampomagnolide B were evaluated for growth inhibitory properties against an NCI panel of 60 human cancer cell lines derived from nine human cancer cell types, grouped into disease sub-panels that represent leukemia, lung, colon, central nervous system (CNS), melanoma, renal, ovary, breast, and prostate cancer cells. Growth inhibitory (GI50) effects were measured as a function of the variation of optical density as a percentage of control.
# [3] = system: A498; experiment: NCI 60 growth inhibition; format: cell-based, human; conditions: A498, Renal Cancer, Table 2
# Procedure: as §1
# [4] = system: A549/ATCC; experiment: NCI 60 growth inhibition; format: cell-based, human; conditions: Non-Small Cell Lung Cancer, Table 2
# Procedure: as §1
# [5] = system: COLO 205; experiment: NCI 60 growth inhibition; format: cell-based, human; conditions: COLO 205, Colon Cancer, Table 2
# Procedure: as §1
# [6] = system: HCC-2998; experiment: NCI 60 growth inhibition; format: cell-based, human; conditions: HCC-2998, Colon Cancer, Table 2
# Procedure: as §1
# [7] = system: HCT-15; experiment: NCI 60 growth inhibition; format: cell-based, human; conditions: HCT-15, Colon Cancer, Table 2
# Procedure: as §1
# [8] = system: HOP-62; experiment: NCI 60 growth inhibition; format: cell-based, human; conditions: HOP-62, Non-Small Cell Lung Cancer, Table 2
# Procedure: as §1
# [9] = system: HOP-92; experiment: NCI 60 growth inhibition; format: cell-based, human; conditions: HOP-92, Non-Small Cell Lung Cancer, Table 2
# Procedure: as §1
# [10] = system: HS 578T; experiment: NCI 60 growth inhibition; format: cell-based, human; conditions: Breast Cancer, Table 2
# Procedure: as §1
# [11] = system: IGROV1; experiment: NCI 60 growth inhibition; format: cell-based, human; conditions: IGROV1, Ovarian Cancer, Table 2
# Procedure: as §1
# [12] = system: LOX IMVI; experiment: NCI 60 growth inhibition; format: cell-based, human; conditions: Melanoma, Table 2
# Procedure: as §1
# [13] = system: M14; experiment: NCI 60 growth inhibition; format: cell-based, human; conditions: M14, Melanoma, Table 2
# Procedure: as §1
# [14] = system: MALME-3M; experiment: NCI 60 growth inhibition; format: cell-based, human; conditions: Melanoma, Table 2
# Procedure: as §1
# [15] = system: MDA-MB-231/ATCC; experiment: NCI 60 growth inhibition; format: cell-based, human; conditions: Breast Cancer, Table 2
# Procedure: as §1
# [16] = system: MDA-MB-468; experiment: NCI 60 growth inhibition; format: cell-based, human; conditions: MDA-MB-468, Breast Cancer, Table 2
# Procedure: as §1
# [17] = system: MOLT-4; experiment: NCI 60 growth inhibition; format: cell-based, human; conditions: MOLT-4, Leukemia, Table 2
# Procedure: as §1
# [18] = system: NCI-H226; experiment: NCI 60 growth inhibition; format: cell-based, human; conditions: NCI-H226, Non-Small Cell Lung Cancer, Table 2
# Procedure: as §1
# [19] = system: NCI-H23; experiment: NCI 60 growth inhibition; format: cell-based, human; conditions: NCI-H23, Non-Small Cell Lung Cancer, Table 2
# Procedure: as §1
# [20] = system: NCI-H322M; experiment: NCI 60 growth inhibition; format: cell-based, human; conditions: Non-Small Cell Lung Cancer, Table 2
# Procedure: as §1
# [21] = system: NCI-H460; experiment: NCI 60 growth inhibition; format: cell-based, human; conditions: NCI-H460, Non-Small Cell Lung Cancer, Table 2
# Procedure: as §1
# [22] = system: NCI-H522; experiment: NCI 60 growth inhibition; format: cell-based, human; conditions: NCI-H522, Non-Small Cell Lung Cancer, Table 2
# Procedure: as §1
# [23] = system: NCI/ADR-RES; experiment: NCI 60 growth inhibition; format: cell-based, human; conditions: Ovarian Cancer, Table 2
# Procedure: as §1
# [24] = system: OVCAR-3; experiment: NCI 60 growth inhibition; format: cell-based, human; conditions: OVCAR-3, Ovarian Cancer, Table 2
# Procedure: as §1
# [25] = system: RXF 393; experiment: NCI 60 growth inhibition; format: cell-based, human; conditions: Table 2
# Procedure: as §1
# [26] = system: SF-295; experiment: NCI 60 growth inhibition; format: cell-based, human; conditions: SF-295, CNS Cancer, Table 2
# Procedure: as §1
# [27] = system: SF-539; experiment: NCI 60 growth inhibition; format: cell-based, human; conditions: SF-539, CNS Cancer, Table 2
# Procedure: as §1
# [28] = system: SK-MEL-2; experiment: NCI 60 growth inhibition; format: cell-based, human; conditions: SK-MEL-2, Melanoma, Table 2
# Procedure: as §1
# [29] = system: SK-MEL-5; experiment: NCI 60 growth inhibition; format: cell-based, human; conditions: SK-MEL-5, Melanoma, Table 2
# Procedure: as §1
# [30] = system: SK-OV-3; experiment: NCI 60 growth inhibition; format: cell-based, human; conditions: SK-OV-3, Ovarian Cancer, Table 2
# Procedure: as §1
# [31] = system: SNB-75; experiment: NCI 60 growth inhibition; format: cell-based, human; conditions: SNB-75, CNS Cancer, Table 2
# Procedure: as §1
# [32] = system: SR; experiment: NCI 60 growth inhibition; format: cell-based, human; conditions: Leukemia, Table 2
# Procedure: as §1
# [33] = system: T-47D; experiment: NCI 60 growth inhibition; format: cell-based, human; conditions: Breast Cancer, Table 2
# Procedure: as §1
# [34] = system: TK-10; experiment: NCI 60 growth inhibition; format: cell-based, human; conditions: TK-10, Renal Cancer, Table 2
# Procedure: as §1
# [35] = system: UACC-62; experiment: NCI 60 growth inhibition; format: cell-based, human; conditions: UACC-62, Melanoma, Table 2
# Procedure: as §1
# [36] = system: UO-31; experiment: NCI 60 growth inhibition; format: cell-based, human; conditions: UO-31, Renal Cancer, Table 2
# Procedure: as §1
# [37] = system: NCI panel of 60 human cancer cell lines; experiment: NCI 60 growth inhibition, ranges over groups of cell lines; format: cell-based
# Procedure: as §1
smiles,measurement,setting,value
C=C1C(=O)O[C@H]2[C@H]1CC/C(Cn1cc(-c3cc(C)c(C)cc3C)nn1)=C\CC[C@@]1(C)O[C@@H]21 [JVM 4-50],EC50,[1],9.8 µM
same,GI50,[2],1.5 µM
same,GI50,[3],1.04 µM
same,GI50,[4],1.73 µM
same,GI50,[5],0.64 µM
same,GI50,[6],1.72 µM
same,GI50,[7],0.2 µM
same,GI50,[8],1.77 µM
same,GI50,[9],0.43 µM
same,GI50,[10],1.94 µM
same,GI50,[11],1.29 µM
same,GI50,[12],0.72 µM
same,GI50,[13],1.5 µM
same,GI50,[14],1.43 µM
same,GI50,[15],1.11 µM
same,GI50,[16],0.53 µM
same,GI50,[17],2.38 µM
same,GI50,[18],1.46 µM
same,GI50,[19],1.77 µM
same,GI50,[20],11.1 µM
same,GI50,[21],3.16 µM
same,GI50,[22],0.28 µM
same,GI50,[23],2.51 µM
same,GI50,[24],1.03 µM
same,GI50,"[25]; RXF 393, Renal Cancer",0.96 µM
same,GI50,[26],6.44 µM
same,GI50,[27],1.16 µM
same,GI50,[28],1.75 µM
same,GI50,[29],1.66 µM
same,GI50,[30],11.7 µM
same,GI50,[31],0.52 µM
same,GI50,[32],1.26 µM
same,GI50,[33],0.53 µM
same,GI50,[34],1.46 µM
same,GI50,[35],1.13 µM
same,GI50,[36],0.52 µM
C=C1C(=O)O[C@H]2[C@H]1CC/C(Cn1cc(-c3ccc(F)cc3)nn1)=C\CC[C@@]1(C)O[C@@H]21 [JVM 4-26],GI50,[2]; Homo sapiens,1.06 µM
same,GI50,[3]; Homo sapiens,1.82 µM
same,GI50,[4]; Homo sapiens,3.37 µM
same,GI50,[5]; Homo sapiens,0.45 µM
same,GI50,[6]; Homo sapiens,1.74 µM
same,GI50,[7]; Homo sapiens,0.28 µM
same,GI50,[8]; Homo sapiens,3.04 µM
same,GI50,[9]; Homo sapiens,0.34 µM
same,GI50,[10]; Homo sapiens,3.68 µM
same,GI50,"[11]; Homo sapiens, IGROV-1",1.17 µM
same,GI50,[12]; Homo sapiens,0.9 µM
same,GI50,[13]; Homo sapiens,0.94 µM
same,GI50,[14]; Homo sapiens,1.4 µM
same,GI50,[15]; Homo sapiens,1.22 µM
same,GI50,[16]; Homo sapiens,0.42 µM
same,GI50,[17]; Homo sapiens,0.38 µM
same,GI50,[18]; Homo sapiens,2.48 µM
same,GI50,[19]; Homo sapiens,1.78 µM
same,GI50,[20]; Homo sapiens,4.39 µM
same,GI50,[21]; Homo sapiens,3.66 µM
same,GI50,[22]; Homo sapiens,0.25 µM
same,GI50,[23]; Homo sapiens,3.05 µM
same,GI50,[24]; Homo sapiens,0.49 µM
same,GI50,"[25]; Homo sapiens, RXF 393, RXF 393, Renal Cancer",0.87 µM
same,GI50,[26]; Homo sapiens,5.73 µM
same,GI50,[27]; Homo sapiens,0.27 µM
same,GI50,[28]; Homo sapiens,1.83 µM
same,GI50,[29]; Homo sapiens,1.74 µM
same,GI50,[30]; Homo sapiens,9.78 µM
same,GI50,[31]; Homo sapiens,1.25 µM
same,GI50,[32]; Homo sapiens,0.25 µM
same,GI50,"[33]; Homo sapiens, T47D",0.74 µM
same,GI50,[34]; Homo sapiens,1.24 µM
same,GI50,[35]; Homo sapiens,1.26 µM
same,GI50,[36]; Homo sapiens,1.22 µM
same,GI50,"[37]; leukemia cell lines CCRF-CEM, HL-60(TB), K-562, MOLT-4 and SR, read-out: growth inhibition values",0.24 to 0.94 µM
same,GI50,"[37]; most of the solid tumor cell lines in the panel, read-out: GI50",0.18 to 0.94 µM
